Assay: Human HepG2 cell viability assay in 384 well format
Type: toxicity, cell-based
Parameters: dose 125 nL, time 70.5 hour; concentration not given beside the values
Settings: HepG2 cells, read-out: Inhibition

CC(=O)N1CC(=O)N(c2ccccc2)CC12CCN(Cc1ccsc1)C2 (stereo unspecified)
cytotoxicity at 70.5 h: -8.03%

CC(C)c1nc(CN2CCCC2Cn2cccn2)no1 (stereo unspecified)
cytotoxicity at 70.5 h: -2.93%

NC(=O)CN1CCCN(C(=O)Cc2cccc(C(F)(F)F)c2)CC1
cytotoxicity at 70.5 h: 4.42%

CN(C)C(=O)Cc1ccccc1NCc1cc(C#N)ccc1F
cytotoxicity at 70.5 h: -2.64%

N#Cc1cc(NC(=O)c2ccccc2)ccc1N1CCC(O)CC1
cytotoxicity at 70.5 h: 1.64%

CN1CCCC[C@@H]2[C@H]1[C@@H](c1ccccc1)CCN2C(=O)c1ccncc1
cytotoxicity at 70.5 h: -5.64%

c1ccc(Cc2noc(-c3ccc(NCC4CCCCO4)nc3)n2)cc1 (stereo unspecified)
cytotoxicity at 70.5 h: 26.1%

Cc1n[nH]c2c1C(c1cnn(C)c1)SCC(=O)N2 (stereo unspecified)
cytotoxicity at 70.5 h: -6.84%

CCSc1ccc(NC(=O)N2CCCC2c2ccncc2)cn1 (stereo unspecified)
cytotoxicity at 70.5 h: -8.21%

Cc1ccc(NC2CCN(C(=O)Cc3c(C)noc3C)CC2)nn1
cytotoxicity at 70.5 h: -2.99%

CSc1ccc(CNc2n[nH]c(C)n2)cc1
cytotoxicity at 70.5 h: 44.9%

CC1CN(c2ccc(C#N)cn2)CCN1c1ccc2nncn2n1 (stereo unspecified)
cytotoxicity at 70.5 h: -4.47%

CC(C)c1cc(N2CCN(c3ccc(O)cc3)CC2)n2nccc2n1
cytotoxicity at 70.5 h: -11.5%

CCc1ncc2c(n1)CN(C(=O)CCCc1ccc(OC)cc1)C2
cytotoxicity at 70.5 h: -6.31%

Cc1ncoc1C(=O)N1CCn2c(COCC3CC3)cnc2C1C (stereo unspecified)
cytotoxicity at 70.5 h: 10.1%

CCN(CC)C(CNC(=O)c1c(C)noc1C(C)C)c1ccsc1 (stereo unspecified)
cytotoxicity at 70.5 h: 0.627%

CC(=O)Nc1nc(-c2ccccc2)c[nH]1
cytotoxicity at 70.5 h: 3.67%

CN(C)C[C@H]1C[C@@H]2CN(Cc3ccco3)C[C@@H]2O1
cytotoxicity at 70.5 h: -16.1%

CN(Cc1ccc(N(C)C)cc1)C(=O)CSc1ccc(Br)cc1
cytotoxicity at 70.5 h: -9.49%

COCCCC(=O)Nc1cc(Cl)c(Cl)cn1
cytotoxicity at 70.5 h: 24.5%

COCCNc1nc2c(c(N3CCn4nc(C)cc4C3)n1)CCNCC2
cytotoxicity at 70.5 h: -8.96%

O=C(CCc1nccs1)N1CCCC(N2CCNC2=O)C1 (stereo unspecified)
cytotoxicity at 70.5 h: 0.762%

CCC1C(=O)NCCN1c1ccnc(C(C)(C)C)n1 (stereo unspecified)
cytotoxicity at 70.5 h: -23.9%

O=C(Cc1cccnc1)N1CCCC2(CCN(C3CCOCC3)C2)C1 (stereo unspecified)
cytotoxicity at 70.5 h: 9.18%

O=C(NCCc1csc(-c2ccncc2)n1)C1CC(=O)N(C2CC2)C1 (stereo unspecified)
cytotoxicity at 70.5 h: -3.67%

Cc1cccc(CC(=O)N2CCCCC2CN)c1 (stereo unspecified)
cytotoxicity at 70.5 h: -3.78%

Fc1cnc(N2CC[C@@H]3CN(Cc4ccncc4)CCO[C@@H]3C2)nc1
cytotoxicity at 70.5 h: 7.83%

CS(=O)(=O)c1ccc(NC(=O)CSC(F)(F)F)cn1
cytotoxicity at 70.5 h: 20.8%

O=C(NCc1cc[nH]n1)NCC(c1ccccc1Cl)N1CCCC1 (stereo unspecified)
cytotoxicity at 70.5 h: -14.6%

Cn1cc(C2CC(=O)NC23CCN(Cc2nccs2)CC3)cn1 (stereo unspecified)
cytotoxicity at 70.5 h: -9.24%

CCc1c(C)nc2cc(C3CCN(Cc4ccccc4F)C3)nn2c1O (stereo unspecified)
cytotoxicity at 70.5 h: -2.56%

CCc1noc(C(C)N2CCC(O)CC2)n1 (stereo unspecified)
cytotoxicity at 70.5 h: -10.2%

Cc1cc(C(=O)CN(Cc2cccnc2)CC2CCCO2)c(C)[nH]1 (stereo unspecified)
cytotoxicity at 70.5 h: -15.9%

Cn1ccc(C(=O)N2CCC(Cc3cccc4ncccc34)CC2)n1
cytotoxicity at 70.5 h: -6.71%

Cc1nc(CN2CCCC2c2ccsc2)nc2ccccc12 (stereo unspecified)
cytotoxicity at 70.5 h: 4.71%

COc1ccc2nnc(CCC(=O)Nc3nc4c(s3)CCCCC4)n2n1
cytotoxicity at 70.5 h: -17.3%

Cc1noc2nc(C3CCN(Cc4ccccn4)CC3)cc(C(F)F)c12
cytotoxicity at 70.5 h: -2.48%

CNC(=O)COc1ccc(CNCc2ccc(F)cc2F)cc1
cytotoxicity at 70.5 h: -3.23%

COCC1CC2(CCN(Cc3ccccn3)CC2)CN1c1ncccn1 (stereo unspecified)
cytotoxicity at 70.5 h: 0.787%

O=C(CCn1ncc2c(Cl)cccc21)NCC1CC1
cytotoxicity at 70.5 h: -5.33%

O[C@H]1Cc2ccccc2[C@H]1Nc1ncccc1C(F)(F)F
cytotoxicity at 70.5 h: -4.3%

O=C(NCc1csc(Br)c1)N1CCOCC1
cytotoxicity at 70.5 h: -4.76%

CN1CCN(c2cnn(CCn3cccn3)c(=O)c2)CC1
cytotoxicity at 70.5 h: -3.04%

CN(Cc1ccc(OC(F)F)cc1)C(=O)CS(=O)(=O)c1ccc(Cl)cc1
cytotoxicity at 70.5 h: -9.26%

CCc1cc(=O)[nH]c2nnc(SCC(=O)NC)n12
cytotoxicity at 70.5 h: 14.5%

CCC(Nc1ccc(Oc2cccc(C#N)c2)cc1)C(N)=O (stereo unspecified)
cytotoxicity at 70.5 h: -12.3%

Cc1cnc(N2CC[C@@H]3O[C@H](COCc4ccccn4)CC[C@@H]32)nc1
cytotoxicity at 70.5 h: -1.58%

Cc1cc(NC(=O)NCCOc2ccc(Cl)cn2)no1
cytotoxicity at 70.5 h: -3.43%

COc1ccc(C(=O)N2CCCCC2c2nc(C)cs2)nn1 (stereo unspecified)
cytotoxicity at 70.5 h: 23.8%

COc1ccc(C2(C(=O)N3C[C@@H](C(=O)O)[C@H](C(C)C)C3)CC2)cc1
cytotoxicity at 70.5 h: -6.04%

CCCS(=O)(=O)NC1CCN(c2nnc(C)c(C)c2C#N)CC1
cytotoxicity at 70.5 h: -6.18%

CCN(CC)Cc1cn2c(n1)CN(C(=O)Cc1ccsc1)CC2
cytotoxicity at 70.5 h: -5.15%

CC(c1ccon1)N(C)C(=O)C1CCN(C(=O)C2CCC2)CC1 (stereo unspecified)
cytotoxicity at 70.5 h: 25.3%

CN1CCC(n2nc(Cc3cccc(Cl)c3)nc2Cn2cnnn2)CC1
cytotoxicity at 70.5 h: 27.5%

Cc1c[nH]c(CN(C)c2nc(C3CCCC3)nc3c2cnn3C)n1
cytotoxicity at 70.5 h: -2.19%

CCc1n[nH]c(C2CN(C(=O)c3cc(C4CC4)on3)CCO2)n1 (stereo unspecified)
cytotoxicity at 70.5 h: -5.69%
